Laboratory results published in patent publication US10774124B2, “Protease resistant mutants of stromal cell derived factor-1 in the repair of tissue damage” (THE BRIGHAM AND WOMEN'S HOSPITAL, INC., priority 2006, dated 2020).
Read-outs that look alike come from different tables or passages of the source. No end group written: not given here.

Assays:
[1] = system: T lymphocytes and CEM cells; conditions: cited from earlier work; for induce chemotaxis: T lymphocytes and CEM cells; for fold less potent than SDF-1: chemoattractant activity, relative to native SDF-1; for EC50: read-out: half-maximal chemoattractant activity
[2] = system: T lymphocytes and CEM cells; conditions: cited from earlier work
[3] = molecular target: CXC chemokine receptor 4 (CXCR4) (Homo sapiens, UniProt P61073); conditions: cited from earlier work
[4] = molecular target: T1, MMP-2 (Homo sapiens, UniProt P08253); assay: MMP-2 cleavage, incubation product examined by SDS-PAGE; format: biochemical; conditions: for cleavage by MMP-2 (SDS-PAGE): 2 nmole peptide incubated with MMP-2 for 1 h at RT
T1 sequence (P08253 110-660): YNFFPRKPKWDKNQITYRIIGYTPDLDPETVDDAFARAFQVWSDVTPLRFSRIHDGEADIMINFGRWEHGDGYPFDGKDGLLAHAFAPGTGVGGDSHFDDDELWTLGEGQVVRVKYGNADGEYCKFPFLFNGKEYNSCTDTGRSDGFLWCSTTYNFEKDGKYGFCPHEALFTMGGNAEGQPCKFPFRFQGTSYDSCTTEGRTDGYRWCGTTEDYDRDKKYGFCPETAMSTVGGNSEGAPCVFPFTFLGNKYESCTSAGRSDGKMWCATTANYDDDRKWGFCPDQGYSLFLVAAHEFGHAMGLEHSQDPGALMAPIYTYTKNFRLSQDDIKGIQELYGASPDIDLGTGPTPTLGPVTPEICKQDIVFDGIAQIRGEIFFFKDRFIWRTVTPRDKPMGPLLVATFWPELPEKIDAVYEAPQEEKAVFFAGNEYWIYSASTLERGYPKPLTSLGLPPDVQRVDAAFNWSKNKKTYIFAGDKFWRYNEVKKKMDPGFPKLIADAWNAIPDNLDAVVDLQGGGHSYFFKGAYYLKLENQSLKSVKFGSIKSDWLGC
Description: The susceptibility of the peptides to cleavage by MMP-2 was determined by incubating the mutants with the enzyme for one hour and then examining the incubation product by SDS-PAGE.
Cleavage experiments of the peptides with MMP-2 were performed: 2 nmole of SDF-1 17AA, SDF-1(S4V) 17AA, and SDF-1(L5P) 17AA were incubated with MMP-2 for 1 h at RT. Proteins were run on an SDS-PAGE showing cleavage of SDF-1 17AA, but not of SDF-1(S4V) 17AA or SDF-1(L5P) 17AA. Thus, these truncated proteins may be useful therapeutically, as they are still bioactive and also MMP-2 resistant.

[5] = system: Jurkat T cells; assay: Jurkat T cell migration assay; format: cell-based; conditions: for activity on T-cell migration: compared to native SDF-1; for activity in promoting T cell migration: concentration of 100 nM, versus unmutated SDF-1
Description: Cells from a 4-L growth were lysed in 300 ml lysis buffer (6M Guanidine, 20 mM phosphate (pH 7.8), 500 mM NaCl) and homogenized. Debris is collected by centrifugation at 3000 g. The first purification step consisted of capture of the poly-histidine tag present in the SUMO-SDF-1α fusion protein with Nickel-NTA. Nickel-NTA resin was washed with wash buffer (8M Urea, 500 mM NaCl, 20 mM phosphate (pH 6.2)) and the bound protein was eluted at pH 4. Further purification and oxidative refolding were performed on a Cation Exchange HPLC column. The sample was adjusted to binding buffer (8M Urea, 30 mM 2-mercaptoethanol, 1 mM EDTA, 50 mM Tris pH8) and loaded on the HPLC column. Refolding of Sumo-SDF-1 was performed on the column with a 2 h run of refolding buffer (50 mM Tris pH8, 75 mM NaCl, 0.1 mM reduced Glutathione and 0.1 mM oxidized Glutathione). Sumo-SDF-1 was eluted with a step gradient (0.5 to 1M NaCl) and concentrated. The SUMO-SDF-1 fusion protein was cleaved by Sumo Protease 1 (IU/50 μg protein) in 50 mM Tris pH 8.0, 500 mM NaCl. The sample was adjusted to 0.1% trifluoroacetic acid (TFA) and loaded on a C18 Reversed Phase HPLC column for the final purification step. The column was subjected to a linear gradient from 30 to 40% acetonitrile in 0.1% TFA. The fractions containing SDF-1 were lyophilized and resuspended. Activity of purified SDF-1 was tested by migration of Jurkat T-lymphocyte cell line.
The mutated forms of SDF-1 were examined in an assay of migration of Jurkat T cells at a concentration of 100 nM.
Migration experiments were performed with the Jurkat T-lymphocyte cell line. […] Therefore, if 500 times higher concentrations were used compared to full-length protein, the same migratory response of T-lymphocytes should be observed. […] This is a similar shift to that seen between native SDF-1 and SDF-1(S4V).

[6] = molecular target: T1, MMP-2; assay: Jurkat T-cell migration assay after MMP-2 incubation; format: cell-based

Chain of CXC chemokine receptor 4 (CXCR4) (P61073 whole entry): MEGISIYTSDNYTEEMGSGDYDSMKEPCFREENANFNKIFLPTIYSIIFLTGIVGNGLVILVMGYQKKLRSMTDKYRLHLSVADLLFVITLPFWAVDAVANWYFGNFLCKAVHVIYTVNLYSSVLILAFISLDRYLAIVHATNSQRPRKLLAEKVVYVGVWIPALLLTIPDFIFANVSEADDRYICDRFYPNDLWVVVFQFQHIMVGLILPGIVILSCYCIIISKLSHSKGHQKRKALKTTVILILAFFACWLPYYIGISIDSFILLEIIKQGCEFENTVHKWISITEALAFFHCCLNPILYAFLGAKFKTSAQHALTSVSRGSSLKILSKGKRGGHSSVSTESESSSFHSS

Row | Substance | induce chemotaxis [1] | induce intracellular calcium [2] | bind to CXCR4 [3] | activity on T-cell migration [5] | activity in promoting T cell migration [5] | also measured
1 | 1-8: peptide of N-terminal residues 1-8 of SDF-1 (KPVSLSYR; UniProt P48061 22-29, looked up, fragment) | induce | induce | bind | – | – | –
2 | 1-9 dimer: dimer of the SDF-1 1-9 peptide (KPVSLSYRC; also: dimer; UniProt P48061 22-30, looked up, fragment) | induce | induce | bind | – | – | fold less potent than SDF-1 [1]: 100 fold; EC50 [1]: 0.5 µM
3 | 1-9: peptide of N-terminal residues 1-9 of SDF-1 (KPVSLSYRC; UniProt P48061 22-30, looked up, fragment) | induce | induce | bind | – | – | fold less potent than SDF-1 [1]: 3600 fold
4 | 1-17: peptide of N-terminal residues 1-17 of SDF-1 (KPVSLSYRCPCRFFESH; UniProt P48061 22-38, looked up, fragment) | induce | induce | bind | – | – | fold less potent than SDF-1 [1]: 400 fold
5 | SCR: GIVGPL (SEQ ID NO:58), linker sequence, a scrambled version of the MMP-2 cleavage site MCS (listed as Homo sapiens) | – | – | – | – | – | MMP-2 cleavage of linker sequence ([4]; rate compared with MCS): undergo MMP-2 cleavage, although at a slower rate than MCS
6 | SDF-1 17AA: KPVSLSYRCPCRFFESH (SEQ ID 64), first 17 amino acids of native SDF-1 (listed as Homo sapiens) | – | – | – | – | – | times less potent than native SDF-1 ([5]; Jurkat T-lymphocyte migration): 500 times; cleavage by MMP-2 (SDS-PAGE) [4]: cleavage
7 | SDF-1(L5E): SDF-1 mutant, leucine at position 5 changed to glutamic acid | – | – | – | minimal activity | greatly reduced | –
8 | SDF-1(L5P) 17AA: KPVSPSYRCPCRFFESH (SEQ ID 66) (listed as Homo sapiens) | – | – | – | – | – | times less potent than SDF-1 17AA without mutation ([5]; Jurkat T-lymphocyte migration): three times less potent; cleavage by MMP-2 (SDS-PAGE) [4]: not
9 | SDF-1(L5P): SDF-1 mutant, leucine at position 5 changed to proline, SEQ ID NO:56 | – | – | – | bioactivity comparable to native SDF-1 | retained most of the activity of unmutated SDF-1 | –
10 | SDF-1(L5W): SDF-1 mutant, leucine at position 5 changed to tryptophan | – | – | – | minimal activity | greatly reduced | –
11 | SDF-1(S4V) 17AA: KPVVLSYRCPCRFFESH (SEQ ID 65) (listed as Homo sapiens) | – | – | – | – | – | times less potent than SDF-1 17AA without mutation ([5]; Jurkat T-lymphocyte migration): three times less potent; cleavage by MMP-2 (SDS-PAGE) [4]: not
12 | SDF-1(S4V): SDF-1 mutant, serine at position 4 changed to valine, SEQ ID NO:54 | – | – | – | bioactivity comparable to native SDF-1 | retained most of the activity of unmutated SDF-1 | chemoattractant activity after MMP-2 incubation [6]: not; chemoattractant activity after MMP-2 incubation ([6]; listed as S4V variant of SDF-1): resistant to activation by MMP-2
13 | stromal cell derived factor-1 [SDF-1] | – | – | – | – | – | cleavage by MMP-2 (positional shift on SDS-PAGE) ([4]; incubated with the enzyme for one hour): positional shift indicative of cleavage; chemoattractant activity after MMP-2 incubation [6]: reduce the chemoattractant activity; EC50 [1]: 0.005 µM
